From PubChem BioAssay (NCI)
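Following 48 hours of exposure in 96-well plates, responses at five concentrations were used to interpolate endpoints linearly. The concentration for 50% growth inhibition is given as GI50. Definition used: TGI = concentration required for complete inhibition of growth.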

Tests used:
Assay in all cases: growth of human tumour cells (NCI), 48 h
[1] = system: A498 renal
[2] = system: DU-145 prostate
[3] = system: HOP-92 NSCLC
[4] = system: HS 578T breast
[5] = system: M14 melanoma
[6] = system: MALME-3M melanoma
[7] = system: PC-3 prostate
[8] = system: SF-268 CNS
[9] = system: T-47D breast
[10] = system: U251 CNS

SMILES | GI50 [1] [µM] | TGI [1] [µM] | GI50 [2] [µM] | TGI [2] [µM] | GI50 [3] [µM] | TGI [3] [µM] | GI50 [4] [µM] | TGI [4] [µM] | GI50 [5] [µM] | TGI [5] [µM] | GI50 [6] [µM] | TGI [6] [µM] | GI50 [7] [µM] | TGI [7] [µM] | GI50 [8] [µM] | TGI [8] [µM] | GI50 [9] [µM] | TGI [9] [µM] | GI50 [10] [µM] | TGI [10] [µM]
COc1ccc(S(=O)(=O)NCCNc2nccc(-c3c(-c4ccccc4)nc4sccn34)n2)cc1 | 1.16 | 8.9 | 3.37 | > 100 | 3.73 | 65.7 | 2.18 | 47.4 | 2.77 | > 100 | 8.77 | > 100 | 1.64 | > 100 | 3.74 | > 100 | 3.17 | > 100 | 5.17 | > 100
COC1C(CO)OC(n2c3ccccc3c3c4c(c5c6ccccc6[nH]c5c32)C(=O)NC4=O)C(O)C1OC(=O)C(N)CCCCN (stereo not given) | 0.917 | 3.11 | 0.659 | 4.05 | 1.54 | 12.9 | 1.93 | 12.2 | 0.689 | > 11 | 0.11 | 0.946 | 1.43 | > 42.3 | 0.379 | 14.5 | – | > 10.3 | 0.282 | > 11.5
CC(C)C[C@H](NC(=O)[C@@H](O)[C@H](N)Cc1ccccc1)C(=O)O | > 100 | > 100 | – | > 100 | – | > 100 | – | > 100 | – | > 100 | – | > 100 | – | > 100 | – | > 100 | – | > 100 | – | > 100
C=CC[PH+](c1ccccc1)c1ccccc1.C=CC[PH+](c1ccccc1)c1ccccc1.[Cl][Pt][Cl] | 16.5 | 57.8 | 12.7 | 30.2 | 3.27 | 12.4 | 13.4 | 48.6 | 6.35 | 22.3 | 2.22 | 5.8 | 7.11 | 24.6 | 14.2 | 32 | 4.59 | 24.6 | 7.45 | 22.3
N#CC1(C#N)C2C=CC(C3CCC=C32)C1(C#N)C#N (stereo not given) | – | > 10 | – | > 10 | – | > 10 | – | > 10 | – | > 10 | – | 5.5 | – | > 10 | – | > 10 | – | > 8.87 | – | > 10
CCCCCCCCCCCCCCCC(=O)OCC1OC(n2ccc(N)nc2=O)C(O)C1O (stereo not given) | – | > 100 | – | 67.2 | – | > 100 | – | > 100 | – | 33.7 | – | > 54.6 | – | > 100 | – | > 100 | – | > 100 | – | > 100
CN(C)c1ccc(Sc2ccc3nc(N)nc(N)c3c2)cc1 | 3.34 | 14 | 0.793 | 12.1 | 1.32 | 5.83 | 4.72 | 27.4 | 0.363 | 2.13 | 1.09 | 2.87 | 0.63 | 15.6 | 0.604 | 14.3 | 1.66 | 4.82 | 0.446 | 4.14
O=C(Nc1ccccc1)Nc1ccccc1CNc1nc(Nc2ccc(OCCN3CCCC3)cc2)ncc1Cl | 1.51 | 8.54 | 5.55 | 12.4 | 2.82 | 10.6 | 2.38 | 15.7 | 2.51 | 9.79 | 5.51 | 12.7 | 6.06 | 14 | 6.2 | 16.6 | 2.75 | 20.8 | 1.93 | 13.7
C#Cc1ccc(-n2c(/C=C/c3cc(OC)c(OC)c(OC)c3)nc3ncccc3c2=O)cc1 | 2.63 | 9.84 | 5.36 | > 100 | 2.31 | 7.72 | 3.67 | 23 | 4.94 | > 100 | 9.74 | 70.5 | 3.96 | > 100 | 5.33 | 98 | 5.85 | > 100 | 9.93 | > 100
C#Cc1cccc(Nc2ncnc3ccc(-c4cncc(NS(C)(=O)=O)c4)cc23)c1 | 0.372 | 2.04 | 2.07 | 12.8 | 0.447 | 3.73 | 1.1 | 4.65 | 2.33 | 11.2 | 1.11 | 9.13 | 2.21 | 9.95 | 1.92 | 11.5 | 0.209 | 2.77 | 2.5 | 10.3
CCSc1nc(N)c2cnn(C)c2n1 | 3.26 | 21.5 | 40 | > 100 | 77.4 | > 100 | 30.7 | 74 | 52 | > 100 | 33.6 | > 100 | 38.9 | > 100 | 33 | 85.1 | 0.0485 | > 100 | 40.6 | > 100
